{"source": "patent US20090176866A1", "about": "“Complexes having adjuvant activity” (priority 2004, published 2009)", "key": {"[1]": {"tested_on": "Leishmania donovani amastigotes", "assay": "Mouse model of visceral leishmaniasis (liver parasite burden)", "assay_type": "in vivo, BALB/c mice", "protocol": "Leishmania donovani strain (MHOM/ET/67/L82) amastigotes were collected from the spleens of heavily infected donor Syrian Hamsters-Mesocritetus auratus. An inoculum containing 7.5-10×10^7 amastigotes/mL was prepared. Female BALB/c mice (20 g) that were specified pathogen free were infected intravenously with 200 μL (equivalent to 1.5-2×10^7 amastigotes) on day 0. The end point of infection was evaluated by microscopic reading on day 14 to check for the level of infection in one mouse, and on day 21 post-infection of Giemsa stained liver impressions to determine the total parasite burden.\nThe following compounds were administered intravenously according to the following regimens:—\nThere were 5 animals in each group. […] All drug preparations were filtered using a […] syringe filter. The intravenous volume of injection was 200 μL per injection.\nGroups of mice were weighed before and after treatment as a measure of toxicity and the percentage weight change noted. On day 21 after infection (which was 3 days after the completion of treatment), the parasite burden was determined microscopically from methanol fixed liver impression slides stained with 10% Giemsa. The number of amastigotes/500 liver cells were counted microscopically and the results expressed as a percentage of the untreated control."}, "[2]": {"tested_on": "intracellular Leishmania mexicana amastigotes", "assay": "Inhibition of intracellular Leishmania mexicana amastigote growth in human monocyte derived macrophages (infection index)", "assay_type": "cell-based", "conditions": "72 h at 32° C.", "protocol": "(§1) Leishmania mexicana amastigotes were used to infect human monocyte derived macrophages that were maintained in RPMI 1640 (Invitrogen) supplemented with 10% human serum (heat inactivated at 56° C. for 1 hour) and 200 IU/ml penicillin and 200 μg/ml streptomycin. The cells were plated at 10^6 cells/ml into Lab-Tek Chamber Slides (Nunc) and incubated at 37° C./5% CO2 for 3 days. The media was then aspirated from the chamber slides and an equal volume of fresh media added back in which the amastigote concentration had been adjusted to give a parasite:cell infection ratio of 5:1. The cells were then incubated at 32° C. for 20 h to enable infection of the macrophages to become established. Media was then aspirated from the chamber slides and replaced with doubling dilutions of the test compound. The cells were then incubated at 32° C. for 72 h. After washing with PBS, the chambers were detached, the slides allowed to dry and then fixed in methanol. Each slide was then stained with Giemsa and examined microscopically. A total of 250 cells were counted to determine the number of infected and uninfected cells.\n(§2) The infection index was calculated as the average number of parasites/cell multiplied by the percentage of infected cells."}, "human red blood cells": {"tested_on": "human red blood cells", "assay": "Red blood cell lysis", "assay_type": "cell-based", "conditions": "24 h incubation; 3 donors", "description": "A 2% v/v solution of human red blood cells was prepared in RPMI 1640. […] A 1% solution of Triton X-100 was used as a positive reference for 100% cell lysis. Dextran and poly-L lysine were used as negative and positive controls respectively. An equal volume of the sample and red blood cells were aliquoted into a 96 well microbtre plate and incubated at 37° C. After 1 h and after 24 h, each sample was centrifuged (2,000 g, 10 min) and the supernatant added to a 96 well microtitre plate. The absorbance was measured at 490 nm using a spectrophotometer. The degree of lysis was expressed as a percentage of the 100% lysis caused by Triton X-100.\nLyophilised amphotericin B-PMMA-Na was stored at 4° C. under argon for 4 months. It was also solubilised in 5% dextrose at a concentration of 1 mg/ml and stored at 4° C. for 7 months under argon.\nFreshly prepared, clinical grade amphotericin B was used as a reference for the comparison. Incubations were undertaken for 1 h and 6 h."}, "[3]": {"tested_on": "Leishmania donovani promastigotes", "assay": "Viability of Leishmania donovani promastigotes (MTT)", "assay_type": "cell-based", "conditions": "24 h + 24 h MTT at 26° C.", "protocol": "(§3) Leishmania donovania promastigotes were used for these experiments. They were maintained in Schneider's Growth Media 199 supplemented with 15% fetal calf serum (heat inactivated at 56° C. for 1 hour) and gentamicin (1 mg/100 ml). The parasite concentration was adjusted to 2×10^6 parasites/ml. Doubling dilutions of the test compound were prepared at twice the desired final concentration in growth media. An equal volume of the drug and the parasite suspension were then mixed in a 96 well plate and incubated for 24 h at 26° C. At this time, MTT (5 mg/ml) was added and the plate incubated for a further 24 h at 26° C. The plate was then centrifuged (2000 g, 5 min), the supernatant discarded and the pellet resuspended in 100 μl DMSO. Absorbance was measured at 570 nm using a spectrophotometer. The results were expressed as the percentage viability of the promastigotes with 100% viability being determined using the OD of the untreated, replicating promastigotes in the control wells."}, "visceral leishmaniasis": {"tested_on": "visceral leishmaniasis", "conditions": "intravenous, daily or every other day, 15-20 infusions at 0.75-1 mg/kg/day; cited from earlier work"}, "[4]": {"tested_on": "intracellular Leishmania donovani amastigotes", "assay": "Inhibition of intracellular Leishmania donovani amastigote growth in human monocyte derived macrophages (infection index)", "assay_type": "cell-based", "conditions": "72 h at 32° C.", "protocol": "as §1, with “donovani” for “mexicana”\nas §2"}, "[5]": {"tested_on": "Leishmania mexicana promastigotes", "assay": "Viability of Leishmania mexicana promastigotes (MTT)", "assay_type": "cell-based", "conditions": "24 h + 24 h MTT at 26° C.", "protocol": "as §3, with “mexicana promastgotes” for “donovania promastigotes”, “Drosophila growth medium (Invitrogen)” for “Growth Media 199”"}}}
{"molecule": "C[C@@H]1[C@H](O)[C@@H](C)/C=C/C=C/C=C/C=C/C=C/C=C/C=C/[C@H](O[C@@H]2O[C@H](C)[C@@H](O)[C@H](N)[C@@H]2O)C[C@@H]2O[C@](O)(C[C@@H](O)C[C@@H](O)[C@H](O)CC[C@@H](O)C[C@@H](O)CC(=O)O[C@H]1C)C[C@H](O)[C@H]2C(=O)O", "note": "[clinical grade amphotericin B, amphotericin B]", "values": [{"measurement": "killing activity of Leishmania donovani amastigotes compared to the controls", "setting": "[1]; 1 mg/kg i.v. days 14, 16 and 18, liver, day 21, P<0.0001", "value": "significant killing activity"}, {"measurement": "anti-leishmanial activities compared with each other", "setting": "[1]; clinical grade amphotericin B, Ambisome, amphotericin B-PMAA-Na (2 mg/kg), P<0.05 as printed", "value": "not significantly different from each other"}, {"measurement": "50% inhibition of intracellular amastigote growth", "setting": "[2]", "value": 0.14, "unit": "µg/mL"}, {"measurement": "90% inhibition of intracellular amastigote growth", "setting": "[2]", "value": 0.95, "unit": "µg/mL"}, {"measurement": "red cell lysis (toxicity)", "setting": "human red blood cells", "value": 100, "unit": "%"}, {"measurement": "90% lethal dose (LD90)", "setting": "[3]", "value": 1.91, "unit": "µg/mL"}, {"measurement": "Long-term cure rates", "setting": "visceral leishmaniasis", "value": 97, "unit": "%"}, {"measurement": "50% inhibition of intracellular amastigote growth", "setting": "[4]", "value": 0.54, "unit": "µg/mL"}, {"measurement": "90% inhibition of intracellular amastigote growth", "setting": "[4]", "value": 2.31, "unit": "µg/mL"}, {"measurement": "90% lethal dose (LD90)", "setting": "[5]", "value": 1.49, "unit": "µg/mL"}]}
